From patent US20250066319A1, “NOVEL ACID ADDITION SALT AND CRYSTALLINE FORM OF (2R, 3S)-2-(3-(4,5-DICHLORO-1H-BENZO[d]IMIDAZOL-1-YL)PROPYL)PIPERIDIN-3-OL” (Daewoong Pharmaceutical Co., Ltd., priority 2021, published 2025) come the findings set out here.

What all share (type): physicochemical
Data set [1] in a line: Stability confirmation: severe test with respect to moisture, HPLC peak area of main component. The following applies: 93% RH, open beaker. The method, then: (§1) The acid addition salts prepared in some Examples and Comparative Examples were subjected to stability tests against high temperature and high humidity.
And, the severe tests with respect to moisture were performed by placing 50 mg of a sample in a 10 ml beaker, and measuring the content of impurities using HPLC (Azura, KNAUER, P6.1 1 L, DAD 6.1 L) after 1 week, 2 weeks, 4 weeks, and 8 weeks while storing the sample in a 93% RH desiccator in a state that the lid was not closed so that the sample has sufficient contact with the moisture in the air.
(§2) At a fixed time after the start of the test, one vial or beaker was taken out from each time point (the number of samples per test: n=1), and impurities were analyzed using HPLC under the conditions shown in Table 3 below. Then, the peak area was determined through integration for all the detected peaks, and then the relative peak area (%) for the main component was calculated and expressed as an average value.

Data set [2] is described as follows: Hygroscopicity test (weight change in desiccators of constant relative humidity). The arrangement: scale not given here. The following applies: room temperature, one day. The method, then: The hygroscopicity tests of the acid addition salts prepared in Examples 1-1 to 1-6 and Comparative Example 1 were performed.
After one day, the change in weight was measured, then transferred to another desiccator and the previous experiment was repeated. At this time, for sorption analysis, the weight change was measured by moving the sample from a low-humidity desiccator to a high-humidity desiccator, and for desorption analysis, the weight change was measured by transferring the sample from a high-humidity desiccator with high humidity to a low-humidity desiccator.

Data set [3] can be described thus: Stability confirmation: severe test with respect to temperature, HPLC peak area of main component. The following applies: 60° C., relative humidity less than 10%. On the procedure:
as §1
Specifically, the severe tests with respect to temperature were performed by placing 50 mg of a sample in a vial, closing the lid, and then measuring the content of impurities using HPLC (Azura, KNAUER, P6.1 1 L, DAD 6.1 L) after 1 week, 2 weeks, 4 weeks, and 8 weeks while storing in a chamber at 60° C. and a relative humidity of less than 10%.
as §2

A short description of data set [4]: Differential scanning calorimetry analysis after severe test with respect to temperature. The conditions noted are these: high temperature condition (60° C.), 1 week and 8 weeks; Dihydrochloride. The method, then:
For (2R,3S)-2-(3-(4,5-dichloro-1H-benzo[d]imidazol-1-yl)propyl)piperidin-3-ol monohydrochloride prepared in Example 1-1 and (2R,3S)-2-(3-(4,5-dichloro-1H-benzo[d]imidazol-1-yl)propyl)piperidin-3-ol dihydrochloride prepared in Comparative Example 1, each beaker was taken out 1 week and 8 weeks after the start of the test from the desiccator where the severe tests with respect to temperature were in progress, and the differential scanning calorimetry analysis was performed. At this time, the differential scanning calorimetry analysis was performed using a differential scanning calorimeter (DSC Q20, manufactured by TA Instruments) in a tightly closed pan under nitrogen purge at a scan rate of 10° C./min while raising the temperature from 20° C. to 300° C.

Counter-ions that a name gives are not always drawn.

For `O[C@H]1CCCN[C@@H]1CCCn1cnc2c(Cl)c(Cl)ccc21` [Example 1-2, (2R,3S)-2-(3-(4,5-dichloro-1H-benzo[d]imidazol-1-yl)propyl)piperidin-3-ol Dioxalate I], the “relative peak area for the main component (HPLC)” value (shortened to “relative peak area”) is reported as 99.3% in data set [1] (after 1 week); 99.7% in data set [1] (after 2 weeks); 99.8% in data set [1] (after 4 weeks); 99.8% in data set [1] (after 8 weeks); 99.8% in data set [1] (initial); 99.9% in data set [3] (after 1 week). Further, the “relative peak area” value in data set [3] (after 2 weeks) is listed as 99.8%; in data set [3] (after 4 weeks) it was 99.7%; in data set [3] (after 8 weeks) it was 99.8%; in data set [3] (initial) it was 99.8%. Moreover, the “weight change, desorption” value turned out to be 100 in data set [2] (11% RH), 101.6 in data set [2] (33% RH), 102 in data set [2] (54% RH) and 102.9 in data set [2] (75% RH). Also, the “weight change, sorption” value is recorded as 100 in data set [2] (11% RH); 101.1 in data set [2] (33% RH); 101.8 in data set [2] (54% RH); 102.9 in data set [2] (75% RH); 105.6 in data set [2] (93% RH).
As for “(2R,3S)-2-(3-(4,5-dichloro-1H-benzo[d]imidazol-1-yl)propyl)piperidin-3-ol Dioxalate II [Example 1-3]”, the “relative peak area” value in data set [1] (after 1 week) came out at 99.7%; in data set [1] (after 2 weeks), 99.8%; in data set [1] (after 4 weeks), 99.9%; in data set [1] (after 8 weeks), 99.9%; in data set [1] (initial), 99.8%; in data set [3] (after 1 week), 99.9%. The “relative peak area” value in data set [3] (after 2 weeks) worked out at 99.8%; in data set [3] (after 4 weeks), 99.8%; in data set [3] (after 8 weeks), 99.9%; in data set [3] (initial), 99.8%. Besides, the “weight change, desorption” value in data set [2] (11% RH) is 100; in data set [2] (33% RH) it was 100; in data set [2] (54% RH) it was 100.2; in data set [2] (75% RH), 100.8. The “weight change, sorption” value in data set [2] (11% RH) is on record as 100; in data set [2] (33% RH) it was 100; in data set [2] (54% RH), 100; in data set [2] (75% RH) it was 101.3; in data set [2] (93% RH), 101.3.
As for `O[C@H]1CCCN[C@@H]1CCCn1cnc2c(Cl)c(Cl)ccc21` [Comparative Example 1, (2R,3S)-2-(3-(4,5-dichloro-1H-benzo[d]imidazol-1-yl)propyl)piperidin-3-ol Dihydrochloride, reference compound], the “relative peak area” value in data set [1] (after 1 week, Dihydrochloride) was 99.7%; in data set [1] (after 2 weeks, Dihydrochloride), 99.7%; in data set [1] (after 4 weeks, Dihydrochloride) it was 99.7%; in data set [1] (after 8 weeks, Dihydrochloride) it was 99.7%; in data set [1] (initial, Dihydrochloride), 99.6%; in data set [3] (after 1 week, Dihydrochloride), 99.7%. Moreover, the “relative peak area” value in data set [3] (after 2 weeks, Dihydrochloride) worked out at 99.7%; in data set [3] (after 4 weeks, Dihydrochloride), 99.8%; in data set [3] (after 8 weeks, Dihydrochloride), 99.7%; in data set [3] (initial, Dihydrochloride), 99.6%. Moreover, in data set [4], the “change in differential scanning calorimetry analysis pattern” value is “shows a change in the differential scanning calorimetry analysis pattern”. The “weight change, desorption” value in data set [2] (11% RH, Dihydrochloride) is 102.9; in data set [2] (33% RH, Dihydrochloride) it was 103.9; in data set [2] (54% RH, Dihydrochloride) it was 104.7; in data set [2] (75% RH, Dihydrochloride), 105.4. Moreover, the “weight change, sorption” value in data set [2] (33% RH, Dihydrochloride) is given as 100.9; in data set [2] (54% RH, Dihydrochloride), 108; in data set [2] (75% RH, Dihydrochloride), 105.4; in data set [2] (93% RH, Dihydrochloride), 128.
As for `O[C@H]1CCCN[C@@H]1CCCn1cnc2c(Cl)c(Cl)ccc21` [Example 1-4, (2R,3S)-2-(3-(4,5-dichloro-1H-benzo[d]imidazol-1-yl)propyl)piperidin-3-ol Hemi-Oxalate], the “weight change, desorption” value is 101.0 in data set [2] (11% RH), 101.0 in data set [2] (33% RH), 101.9 in data set [2] (54% RH) and 103.2 in data set [2] (75% RH). Also, the “weight change, sorption” value is on record as 100 in data set [2] (11% RH); 101.0 in data set [2] (33% RH); 101.6 in data set [2] (54% RH); 101.9 in data set [2] (75% RH); 105.4 in data set [2] (93% RH).
On to `O[C@H]1CCCN[C@@H]1CCCn1cnc2c(Cl)c(Cl)ccc21` [Example 1-5, (2R,3S)-2-(3-(4,5-dichloro-1H-benzo[d]imidazol-1-yl)propyl)piperidin-3-ol Hemi-Maleate], for which the “relative peak area” value is 99.8% in data set [1] (after 2 weeks); 99.8% in data set [1] (after 4 weeks); 99.9% in data set [1] (after 8 weeks); 99.8% in data set [1] (initial); 99.8% in data set [3] (after 2 weeks); 99.7% in data set [3] (after 4 weeks). For the same molecule, the figures for the “relative peak area” value in data set [3] (after 8 weeks) and in data set [3] (initial) were 99.9% and 99.8%, respectively. For the same molecule, the “weight change, desorption” value came to 99.5 in data set [2] (11% RH), 99.8 in data set [2] (33% RH), 99.8 in data set [2] (54% RH) and 100.5 in data set [2] (75% RH). The “weight change, sorption” value is listed as 100 in data set [2] (11% RH); 100 in data set [2] (33% RH); 100.7 in data set [2] (54% RH); 100.9 in data set [2] (75% RH); 101.6 in data set [2] (93% RH).
